{
  "source": "patent US20250268876A1",
  "about": "“TREATMENT OF HIDRADENITIS SUPPURATIVA WITH ORISMILAST” (UNION THERAPEUTICS A/S, priority 2021, published 2025)",
  "key": {"[1]": {"target": "human recombinant PDE4D protein (Homo sapiens, UniProt Q08499)", "sequence (Q08499 whole entry)": "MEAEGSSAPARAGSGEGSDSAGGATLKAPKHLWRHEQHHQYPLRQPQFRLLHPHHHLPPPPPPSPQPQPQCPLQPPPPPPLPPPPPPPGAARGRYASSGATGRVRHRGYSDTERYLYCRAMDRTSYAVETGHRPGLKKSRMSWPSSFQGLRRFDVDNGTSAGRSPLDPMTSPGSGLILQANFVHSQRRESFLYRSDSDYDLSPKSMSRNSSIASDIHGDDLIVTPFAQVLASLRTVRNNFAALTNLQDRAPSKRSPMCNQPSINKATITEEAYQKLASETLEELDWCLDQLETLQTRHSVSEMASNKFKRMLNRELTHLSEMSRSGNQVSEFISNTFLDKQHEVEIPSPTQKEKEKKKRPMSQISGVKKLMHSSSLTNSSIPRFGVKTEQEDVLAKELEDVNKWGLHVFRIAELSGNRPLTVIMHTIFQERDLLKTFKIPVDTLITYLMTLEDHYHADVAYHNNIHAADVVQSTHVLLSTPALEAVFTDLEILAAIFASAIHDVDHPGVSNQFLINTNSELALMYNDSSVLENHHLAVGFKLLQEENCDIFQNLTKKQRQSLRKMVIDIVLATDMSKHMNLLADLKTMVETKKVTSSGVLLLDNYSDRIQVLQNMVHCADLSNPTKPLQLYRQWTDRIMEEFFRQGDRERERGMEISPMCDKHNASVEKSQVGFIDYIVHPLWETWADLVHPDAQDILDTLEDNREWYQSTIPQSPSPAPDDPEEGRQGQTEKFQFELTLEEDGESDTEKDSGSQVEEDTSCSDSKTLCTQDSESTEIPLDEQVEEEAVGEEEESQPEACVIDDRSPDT", "assay": "PDE4D scintillation proximity assay (SPA)", "type": "biochemical", "conditions": "purified human recombinant PDE4D", "experimental": "PDE4 enzymatic activity was measured in a scintillation proximity assay using purified human recombinant PDE4D protein."}, "PDE4B1": {"target": "PDE4B1 (Homo sapiens, UniProt Q07343)", "type": "biochemical", "experimental": "(§1) Enzyme Preparations: Partially purified human recombinant phosphodiesterases (PDEs) were obtained by cloning cDNA and expressing in S. frugiperda insect cells using a baculovirus expression system. Cells are harvested from culture by centrifuging at 400×g for 5 minutes. Cell pellet is resuspended in 20 ml of RIPA Buffer (150 mM NaCl, 10 mM Tris, 0.1% NP-40, pH8.3), 4 ml/200 ml of culture, plus protease inhibitors (100 μl/10 ml) and incubated on ice for 10-20 minutes then spun at 3500×g for 10 minutes at 4° C. Supernatant is kept and the pellet thrown away.\n(§2) Tritium-labelled cyclic AMP is hydrolysed to 5′-AMP o by PDE. The 5′-AMP is then further hydrolysed to adenosine by nucleotidase in snake venom. An anion-exchange resin binds all charged nucleotides and leaves [^3H]adenosine as the only labelled compound to be counted by liquid scintillation.\n(§3) 50 μl of diluted PDE enzyme was incubated with 50 μl of [^3H]-cAMP (specific activity 25 Ci/mmol) and 11 μl of 50% DMSO (or compound dilution) for 20 minutes at 30° C. The enzyme was diluted in 20 mM Tris HCl pH7.4 (×2.2 final concentration) and [3H]-cAMP was diluted in 10 mM MgCl2, 40 mM Tris HCl pH 7.4 (×2.2 final concentration). Reactions were carried out in Greiner 96 deep well 1 ml master-block. The plates were centrifuged for 9 seconds before the 20 minutes incubation. […] After incubation 200 μl Dowex resin (1×8, 200-400 mesh) was added and the plate shaken for 20 minutes then centrifuged for 3 minutes at 1000×g. 50 μl of supernatant was removed and added to 200 μl of MicroScint-20 in white plates (Greiner 96well Optiplate) and shaken for 30 minutes before reading on Perkin Elmer TopCount Scintillation Counter. IC50 values were calculated using GraphPad Prism software (version 8)."}, "PDE4B2": {"target": "PDE4B2 (Homo sapiens, UniProt Q07343)", "sequence (Q07343 1-564 isoform Q07343-2)": "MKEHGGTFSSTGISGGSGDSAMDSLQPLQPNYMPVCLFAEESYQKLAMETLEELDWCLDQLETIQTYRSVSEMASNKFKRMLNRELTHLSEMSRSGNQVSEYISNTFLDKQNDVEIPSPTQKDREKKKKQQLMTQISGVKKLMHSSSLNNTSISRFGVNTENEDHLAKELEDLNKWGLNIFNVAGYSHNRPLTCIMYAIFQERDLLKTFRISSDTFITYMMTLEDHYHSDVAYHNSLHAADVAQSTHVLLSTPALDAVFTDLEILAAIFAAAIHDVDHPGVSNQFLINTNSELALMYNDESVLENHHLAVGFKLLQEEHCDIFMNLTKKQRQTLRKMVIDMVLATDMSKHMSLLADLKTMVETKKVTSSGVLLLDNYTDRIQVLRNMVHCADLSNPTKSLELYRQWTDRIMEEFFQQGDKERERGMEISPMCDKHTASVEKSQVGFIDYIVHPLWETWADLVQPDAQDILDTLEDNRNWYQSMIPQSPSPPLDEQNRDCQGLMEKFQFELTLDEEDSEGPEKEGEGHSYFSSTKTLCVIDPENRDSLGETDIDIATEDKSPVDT", "type": "biochemical", "experimental": "as §1, §2, §3"}, "PDE4B3": {"target": "PDE4B3 (Homo sapiens, UniProt Q07343)", "type": "biochemical", "experimental": "as §1, §2, §3"}, "PDE4C2": {"target": "PDE4C2 (Homo sapiens, UniProt Q08493)", "sequence (Q08493 107-712)": "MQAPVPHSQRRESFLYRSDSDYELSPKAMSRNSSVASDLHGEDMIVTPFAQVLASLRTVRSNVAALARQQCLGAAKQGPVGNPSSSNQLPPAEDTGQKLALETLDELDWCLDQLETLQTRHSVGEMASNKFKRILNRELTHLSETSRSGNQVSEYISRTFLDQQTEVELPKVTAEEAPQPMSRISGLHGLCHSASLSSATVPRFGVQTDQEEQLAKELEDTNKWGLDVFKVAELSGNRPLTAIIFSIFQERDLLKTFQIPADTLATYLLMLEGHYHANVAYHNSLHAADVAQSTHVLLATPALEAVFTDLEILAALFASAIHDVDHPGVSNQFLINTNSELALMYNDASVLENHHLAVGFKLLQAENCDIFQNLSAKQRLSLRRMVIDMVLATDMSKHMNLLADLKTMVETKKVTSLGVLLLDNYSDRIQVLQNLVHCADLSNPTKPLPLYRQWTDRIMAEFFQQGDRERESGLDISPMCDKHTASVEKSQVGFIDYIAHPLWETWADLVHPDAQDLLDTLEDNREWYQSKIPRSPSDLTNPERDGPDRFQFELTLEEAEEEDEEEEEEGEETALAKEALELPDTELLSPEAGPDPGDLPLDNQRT", "type": "biochemical", "experimental": "as §1, §2, §3"}, "PDE4D1": {"target": "PDE4D1 (Homo sapiens, UniProt Q08499)", "sequence (Q08499 1-584 isoform Q08499-4)": "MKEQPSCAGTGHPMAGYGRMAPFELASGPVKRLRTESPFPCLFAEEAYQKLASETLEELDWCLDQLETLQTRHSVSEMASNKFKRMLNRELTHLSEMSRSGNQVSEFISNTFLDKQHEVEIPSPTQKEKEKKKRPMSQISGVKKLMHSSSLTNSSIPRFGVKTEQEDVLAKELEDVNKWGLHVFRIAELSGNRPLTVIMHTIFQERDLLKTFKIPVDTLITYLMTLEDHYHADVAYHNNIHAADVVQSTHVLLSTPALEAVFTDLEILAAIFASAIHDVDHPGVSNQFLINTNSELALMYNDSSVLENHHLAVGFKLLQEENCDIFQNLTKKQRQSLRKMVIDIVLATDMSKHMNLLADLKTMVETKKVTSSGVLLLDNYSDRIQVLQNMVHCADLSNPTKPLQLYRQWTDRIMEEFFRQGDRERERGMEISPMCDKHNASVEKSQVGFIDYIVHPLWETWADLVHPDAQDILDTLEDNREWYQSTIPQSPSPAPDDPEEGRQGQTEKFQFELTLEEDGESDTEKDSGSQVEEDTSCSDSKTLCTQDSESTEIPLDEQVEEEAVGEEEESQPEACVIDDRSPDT", "type": "biochemical", "experimental": "as §1, §2, §3"}, "PDE4D2": {"target": "PDE4D2 (Homo sapiens, UniProt Q08499)", "sequence (Q08499 303-809)": "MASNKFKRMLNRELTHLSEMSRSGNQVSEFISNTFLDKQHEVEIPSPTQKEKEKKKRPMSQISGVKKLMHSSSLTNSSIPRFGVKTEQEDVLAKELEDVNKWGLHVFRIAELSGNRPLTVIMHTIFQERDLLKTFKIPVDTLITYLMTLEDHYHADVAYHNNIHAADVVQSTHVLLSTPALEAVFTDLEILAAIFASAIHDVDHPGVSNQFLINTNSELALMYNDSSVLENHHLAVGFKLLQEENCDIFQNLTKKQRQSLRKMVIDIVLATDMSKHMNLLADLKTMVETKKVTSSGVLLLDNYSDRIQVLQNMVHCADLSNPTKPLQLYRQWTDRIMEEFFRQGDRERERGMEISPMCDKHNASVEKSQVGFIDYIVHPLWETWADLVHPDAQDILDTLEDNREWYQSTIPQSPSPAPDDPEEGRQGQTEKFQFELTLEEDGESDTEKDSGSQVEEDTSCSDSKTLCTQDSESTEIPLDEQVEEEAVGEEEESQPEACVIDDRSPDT", "type": "biochemical", "experimental": "as §1, §2, §3"}, "PDE4D3": {"target": "PDE4D3 (Homo sapiens, UniProt Q08499)", "sequence (Q08499 1-673 isoform Q08499-2)": "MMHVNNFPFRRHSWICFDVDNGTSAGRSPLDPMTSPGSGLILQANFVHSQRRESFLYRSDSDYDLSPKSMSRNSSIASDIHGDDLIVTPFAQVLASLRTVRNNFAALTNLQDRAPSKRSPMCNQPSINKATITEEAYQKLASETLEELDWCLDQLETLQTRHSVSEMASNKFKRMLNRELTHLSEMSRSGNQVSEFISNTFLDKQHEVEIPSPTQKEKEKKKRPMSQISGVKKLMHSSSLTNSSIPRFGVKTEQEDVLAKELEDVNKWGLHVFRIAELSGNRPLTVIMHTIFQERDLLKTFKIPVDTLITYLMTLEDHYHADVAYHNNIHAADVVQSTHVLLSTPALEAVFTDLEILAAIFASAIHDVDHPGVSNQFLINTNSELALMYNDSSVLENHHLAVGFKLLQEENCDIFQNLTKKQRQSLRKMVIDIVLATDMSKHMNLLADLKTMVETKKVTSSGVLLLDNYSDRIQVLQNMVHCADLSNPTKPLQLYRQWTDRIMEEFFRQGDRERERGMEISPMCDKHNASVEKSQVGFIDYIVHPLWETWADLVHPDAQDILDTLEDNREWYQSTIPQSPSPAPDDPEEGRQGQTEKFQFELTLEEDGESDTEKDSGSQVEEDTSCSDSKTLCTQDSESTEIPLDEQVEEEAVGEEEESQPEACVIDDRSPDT", "type": "biochemical", "experimental": "as §1, §2, §3"}, "PDE4D4": {"target": "PDE4D4 (Homo sapiens, UniProt Q08499)", "sequence (Q08499 whole entry)": "as the sequence (Q08499 whole entry) above", "type": "biochemical", "experimental": "as §1, §2, §3"}, "PDE4D5": {"target": "PDE4D5 (Homo sapiens, UniProt Q08499)", "sequence (Q08499 1-745 isoform Q08499-6)": "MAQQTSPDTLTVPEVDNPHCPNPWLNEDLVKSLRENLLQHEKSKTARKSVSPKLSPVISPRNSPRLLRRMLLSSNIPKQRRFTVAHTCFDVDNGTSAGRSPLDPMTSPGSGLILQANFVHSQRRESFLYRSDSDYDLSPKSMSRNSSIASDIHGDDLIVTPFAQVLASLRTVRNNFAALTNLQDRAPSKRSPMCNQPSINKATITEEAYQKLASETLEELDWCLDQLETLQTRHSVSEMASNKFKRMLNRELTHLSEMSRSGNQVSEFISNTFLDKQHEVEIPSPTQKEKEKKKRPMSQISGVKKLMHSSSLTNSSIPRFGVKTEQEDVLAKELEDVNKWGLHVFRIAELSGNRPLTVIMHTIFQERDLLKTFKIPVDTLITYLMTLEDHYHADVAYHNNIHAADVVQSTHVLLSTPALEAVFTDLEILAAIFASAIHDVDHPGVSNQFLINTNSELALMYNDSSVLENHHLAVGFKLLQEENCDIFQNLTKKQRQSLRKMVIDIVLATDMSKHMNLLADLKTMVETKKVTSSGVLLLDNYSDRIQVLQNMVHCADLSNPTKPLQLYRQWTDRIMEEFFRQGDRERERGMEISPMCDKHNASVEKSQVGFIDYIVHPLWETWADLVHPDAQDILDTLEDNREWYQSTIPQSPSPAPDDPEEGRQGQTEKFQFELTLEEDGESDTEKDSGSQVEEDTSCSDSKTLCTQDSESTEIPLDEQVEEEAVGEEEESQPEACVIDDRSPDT", "type": "biochemical", "experimental": "as §1, §2, §3"}, "PDE4D7": {"target": "PDE4D7 (Homo sapiens, UniProt Q08499)", "type": "biochemical", "experimental": "as §1, §2, §3"}, "TNF-α": {"tested_on": "TNF-α", "assay": "LPS-induced TNF-α in ferrets after single oral administration", "conditions": "oral 1, 3 and 10 mg/kg; 1 hour after LPS (3 mg/kg ip)"}},
  "data": [
    {"smiles": "O=C(Cc1c(Cl)c[n+]([O-])cc1Cl)c1ccc(OC(F)F)c2c1OC1(CCS(=O)(=O)CC1)O2", "note": "[Compound (I), 2-(3,5-Dichloro-1-oxido-pyridine-4-yl)-1-(7-difluoro-methoxy-2′,3′,5′,6′-tetrahydro-spiro[1,3-benzodioxole-2,4′-(4H)-thiopyran-1′,1′-dioxide]-4-yl)ethanone]", "values": [
      {"measurement": "EC50", "setting": "[1]", "result": 14.7, "unit": "nM"},
      {"measurement": "IC50", "setting": "PDE4B1", "result": 16, "unit": "nM"},
      {"measurement": "IC50", "setting": "PDE4B2", "result": 6, "unit": "nM"},
      {"measurement": "IC50", "setting": "PDE4B3", "result": 3, "unit": "nM"},
      {"measurement": "IC50", "setting": "PDE4C2", "result": 104, "unit": "nM"},
      {"measurement": "IC50", "setting": "PDE4D1", "result": 9, "unit": "nM"},
      {"measurement": "IC50", "setting": "PDE4D2", "result": 9, "unit": "nM"},
      {"measurement": "IC50", "setting": "PDE4D3", "result": 8, "unit": "nM"},
      {"measurement": "IC50", "setting": "PDE4D4", "result": 8, "unit": "nM"},
      {"measurement": "IC50", "setting": "PDE4D5", "result": 3, "unit": "nM"},
      {"measurement": "IC50", "setting": "PDE4D7", "result": 3, "unit": "nM"},
      {"measurement": "increase of TNF-α levels observed at 1 hour", "setting": "TNF-α", "result": "attenuated, in a clear dose-related manner"}
    ]}
  ]
}
